In PMC4148168 (Journal of Medicinal Chemistry, 2014):

Assays:
[1] = test system: matrix metalloproteinases; settings: cited from earlier work
hCAII [2] = molecular target: T1, hCAII (Homo sapiens, UniProt P00918); experiment: hCAII activity assay; format: biochemical
hCAII [3] = molecular target: T1, hCAII; settings: aliphatic thiols; cited from earlier work

## [O-][n+]1ccccc1S [1,2-HOPTO, 1-hydroxypyridine-2-(1H)-thione]
[1]
  fold more potent than 1,2-HOPO: ~50 fold
hCAII [2]; against hCAII
  fold more potent than 1,2-HOPO: ~50 fold

## OCCS [2-mercaptoethanol]
hCAII [3]
  inhibitory activity against hCAII (in words): lack inhibitory activity

## Cc1cccn(O)c1=S [3-CH3-1,2-HOPTO]
hCAII [2]; against hCAII
  fold increase in potency over unsubstituted 1,2-HOPTO: > 10 fold

## Cc1cc(C)n(O)c(=S)c1 [4,6-CH3-1,2-HOPTO]
hCAII [2]; against hCAII
  fold decrease in potency/affinity relative to 4-CH3-1,2-HOPTO: > 20 fold

## Cc1ccnc(S)c1 [4-CH3-2MPyr, 2-Mercapto-4-methylpyridine]
hCAII [2]; against hCAII
  fold decrease in potency/affinity relative to 4-CH3-1,2-HOPTO: ~200 fold

## On1c(C(F)(F)F)cccc1=S [6-CF3-1,2-HOPTO]
hCAII [2]
  inhibition of hCAII (in words): all activity is lost

## Cc1cccc(=S)n1O [6-CH3-1,2-HOPTO]
hCAII [2]; against hCAII
  fold decrease in potency relative to 1,2-HOPTO: 5 fold
